Assays:
[1] = system: NSCLC-derived Calu-6 (KRAS Q61K); experiment: In vivo KRAS-mutant tumor model Calu-6; conditions: Calu-6 (KRAS Q61K) model, well-tolerated doses
[2] = system: cell lines that contain a variety of mutations that activate MAPK signaling; experiment: Cell-based anti-proliferative assays; conditions: cell lines with mutations that activate MAPK signaling
CRAF = CRAF (Homo sapiens, UniProt P04049); experiment: CRAF inhibition; assay type: biochemical
NCI-H358 (KRAS G12C) = experiment: In vivo KRAS-mutant tumor model NCI-H358; conditions: well-tolerated doses
BRAF = BRAF (Homo sapiens, UniProt P15056); experiment: BRAF inhibition; assay type: biochemical
Sequence of BRAF (P15056 whole entry): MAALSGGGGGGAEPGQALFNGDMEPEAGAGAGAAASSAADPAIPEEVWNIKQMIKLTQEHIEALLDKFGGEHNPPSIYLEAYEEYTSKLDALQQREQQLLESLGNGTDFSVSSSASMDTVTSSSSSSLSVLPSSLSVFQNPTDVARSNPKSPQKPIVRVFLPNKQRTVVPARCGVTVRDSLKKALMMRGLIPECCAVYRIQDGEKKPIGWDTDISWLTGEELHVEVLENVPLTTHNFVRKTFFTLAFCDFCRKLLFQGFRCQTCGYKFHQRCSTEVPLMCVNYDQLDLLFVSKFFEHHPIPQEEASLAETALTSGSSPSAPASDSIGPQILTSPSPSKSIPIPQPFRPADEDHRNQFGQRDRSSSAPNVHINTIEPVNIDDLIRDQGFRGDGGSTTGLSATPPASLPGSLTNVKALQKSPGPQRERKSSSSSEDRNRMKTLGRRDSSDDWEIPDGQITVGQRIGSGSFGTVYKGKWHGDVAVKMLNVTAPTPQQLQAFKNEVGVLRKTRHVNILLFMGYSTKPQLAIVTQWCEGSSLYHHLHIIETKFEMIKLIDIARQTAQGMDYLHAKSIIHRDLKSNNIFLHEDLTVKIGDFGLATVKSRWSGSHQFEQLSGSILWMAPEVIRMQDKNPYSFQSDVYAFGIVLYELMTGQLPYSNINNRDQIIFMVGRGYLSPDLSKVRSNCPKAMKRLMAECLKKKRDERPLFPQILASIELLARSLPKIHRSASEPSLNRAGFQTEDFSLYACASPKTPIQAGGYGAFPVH

Sequence of CRAF (P04049 whole entry): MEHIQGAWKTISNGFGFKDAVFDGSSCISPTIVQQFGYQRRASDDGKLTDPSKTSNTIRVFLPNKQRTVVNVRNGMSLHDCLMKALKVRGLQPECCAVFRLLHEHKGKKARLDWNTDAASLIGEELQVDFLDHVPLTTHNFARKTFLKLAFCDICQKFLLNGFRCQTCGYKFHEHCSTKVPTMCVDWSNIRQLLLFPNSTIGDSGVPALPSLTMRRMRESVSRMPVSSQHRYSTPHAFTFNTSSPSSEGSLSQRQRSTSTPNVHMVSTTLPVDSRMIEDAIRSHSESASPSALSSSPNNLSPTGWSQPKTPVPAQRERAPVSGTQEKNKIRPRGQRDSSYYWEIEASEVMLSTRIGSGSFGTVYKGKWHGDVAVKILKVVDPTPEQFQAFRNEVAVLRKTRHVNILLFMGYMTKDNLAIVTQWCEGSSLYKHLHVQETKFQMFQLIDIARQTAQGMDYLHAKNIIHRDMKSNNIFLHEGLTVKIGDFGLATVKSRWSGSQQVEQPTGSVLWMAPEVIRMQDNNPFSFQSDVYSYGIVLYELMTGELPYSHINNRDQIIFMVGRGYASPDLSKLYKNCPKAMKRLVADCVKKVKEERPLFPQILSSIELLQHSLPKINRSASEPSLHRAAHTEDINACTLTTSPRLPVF

inhibition of CRAF (CRAF): potent inhibitors
inhibition of BRAF (BRAF): potent inhibitors
SMILES: Cc1ccc(NC(=O)c2ccnc(C(F)(F)F)c2)cc1-c1cc(OCCO)nc(N2CCOCC2)c1 [Compound of formula (I)]
tumor response in vivo [1]: tumor regression
anti-proliferative activity in cell lines [2]: anti-proliferative activity
tumor response in vivo (NCI-H358 (KRAS G12C)): tumor regression

Reference: US20260216199A1, “RAF INHIBITOR AND KRAS G12C INHIBITOR COMBINATION THERAPY” (Erasca, Inc., priority 2023, published 2026)
